Reference: patent publication US6780853B1, “Neuroactive steroids of the androstane and pregnane series” (priority 1995, dated 2004)
Like-named read-outs stand apart in the source and are kept apart here.

Key:
[1] = tested on: Progesterone Receptors; assay: Inhibition of 3H-Progesterone Binding to the Bovine Uteral Progesterone Receptors; conditions: competitor 10^−6M; 3H-progesterone 0.15 nM
[2] = tested on: metrazol induced convulsions; assay: Antimetrazol activity in mice; type: in vivo; conditions: Mus musculus; steroid i.p., convulsant s.c., 50% hydroxypropyl-β-cyclodextrin
Summary of the method: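 Mice dosed with test compounds at various doses 10 minutes before metrazol (85 mg/kg) injection. Each animal observed for 30 minutes, recording time to onset of myoclonus (forelimb clonic activity).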

[3] = Rotorod test (general CNS depression potential); design: species or system mice; conditions: mouse, in vivo, ip, 50% hydroxypropyl-β-cyclodextrin
From the text: (§1) The anticonvulsant tests are similar to that described above.

[4] = tested on: maximal electroshock tonic seizure; assay: Maximal electroshock test; type: in vivo, mice; conditions: Mus musculus, ip, 50% hydroxypropyl-β-cyclodextrin
From the text: as §1

[5] = tested on: BIC (bicuclline) convulsions; assay: Chemical convulsant test, BIC; type: in vivo, mice; conditions: Mus musculus; steroid i.p., convulsant s.c., 50% hydroxypropyl-β-cyclodextrin
From the text: as §1

[6] = tested on: TBPS; assay: Chemical convulsant test, column TBPS; type: in vivo, mice; conditions: Mus musculus, read-out: ED50 TBPS
From the text: as §1

[7] = tested on: STR (strychnine) convulsions; assay: Chemical convulsant test, strychnine; type: in vivo, mice; conditions: Mus musculus, read-out: ED50 STR
From the text: as §1

[8] = tested on: hormonal activity; assay: Hormonal activity in vivo; design: species or system animals
From the text: Thus, they wil not have the hormonal side-effects which would be associated with binding to such steroid receptors.

[9] = tested on: metrazol induced convulsions; conditions: cited from earlier work
[10] = tested on: maximal electroshock tonic seizure; conditions: cited from earlier work
[11] = tested on: BIC (bicuclline) convulsions; conditions: cited from earlier work
[12] = tested on: TBPS; conditions: data from Swinyard & Woodhead 1982; cited from earlier work
[13] = tested on: STR (strychnine) convulsions; conditions: cited from earlier work
[14] = data from Swinyard & Woodhead 1982; cited from earlier work
[15] = data from Swinyard & Woodhead 1982
[16] = convulsant i.v., data from Worms et al. 1982

SMILES: CC(=O)[C@H]1CC[C@H]2[C@@H]3CC[C@H]4C[C@](C)(O)CC[C@]4(C)[C@H]3CC[C@]12C [5α-pregnan-3α-ol-3β-methyl-20-one, 3α-hydroxy-3β-methyl-5α-pregnan-20-one]
- % of Inhibition [1]: 4%
- ED50 [2]: 4.3 mg/kg
- ED50 at 10 min [3]: 33.4 mg/kg
- ED50 [4]: 29.7 mg/kg
- ED50 [5]: 4.6 mg/kg
- ED50 [6]: 11.7 mg/kg
- ED50 [7]: > 40 mg/kg
- hormonal activity when given to animals in vivo [8]: not to have any hormonal activity

SMILES: O=C1CN=C(c2ccccc2Cl)c2cc([N+](=O)[O-])ccc2N1 [Clonazepam]
- ED50 PTZ [9, 15]: 0.025 mg/kg
- ED50 MES [10, 15]: 111 mg/kg
- ED50 BIC [11, 15]: 0.0046 mg/kg
- ED50 TBPS [12]: 205 mg/kg
- ED50 STR [13, 15]: >300 mg/kg
- ED50 RR [14]: 0.184 mg/kg

SMILES: NC(=O)CCC/N=C(\c1ccc(Cl)cc1)c1cc(F)ccc1O [Progabide]
- ED50 PTZ [9, 16]: 30 mg/kg
- ED50 MES ([10]; data from Worms et al. 1982): 75 mg/kg
- ED50 BIC [11, 16]: 30 mg/kg
- ED50 STR [13, 16]: 75 mg/kg
